ChEMBL document CHEMBL1201862, “PubChem BioAssay data set” (2004)
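Five compound concentrations were applied to cells in 96-well plates for 48 hours; endpoints were derived by simple linear interpolation of the resulting dose-response curve. At the GI50, growth is halved.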 Active and inactive are the calls of the source. Rule as the data show it: active = GI50 up to about 1.1 µM and inactive = higher.

Tests used:
Assay in all cases: growth of human tumour cells (NCI), 48 h
[1] = system: HT-29
[2] = system: SNB-19
[3] = system: KM12
[4] = system: RPMI-8226
[5] = system: SW-620
[6] = system: SK-MEL-28
[7] = system: Malme-3M
[8] = system: SK-OV-3
[9] = system: LOX IMVI
[10] = system: UACC-62
[11] = system: SNB-75
[12] = system: OVCAR-4
[13] = system: UO-31
[14] = system: MOLT-4
[15] = system: CAKI-1
[16] = system: OVCAR-5
[17] = system: SF-295
[18] = system: NCI-H460
[19] = system: A498
[20] = system: SK-MEL-5

Compound	GI50 [1]	GI50 [2]	GI50 [3]	GI50 [4]	GI50 [5]	GI50 [6]	GI50 [7]	GI50 [8]	GI50 [9]	GI50 [10]	GI50 [11]	GI50 [12]	GI50 [13]	GI50 [14]	GI50 [15]	GI50 [16]	GI50 [17]	GI50 [18]	GI50 [19]	GI50 [20]
O=C(CCCN1CCC(C(O)c2ccc(F)cc2)CC1)c1ccc(F)cc1 (stereo not given)	42.3 µM (inactive)	60.7 µM (inactive)	56.6 µM (inactive)	66.5 µM (inactive)	61.8 µM (inactive)	59.3 µM (inactive)	55.3 µM (inactive)	69.8 µM (inactive)	50 µM (inactive)	57 µM (inactive)	44.3 µM (inactive)	61 µM (inactive)	23.1 µM (inactive)	54.3 µM (inactive)	53.7 µM (inactive)	58.2 µM (inactive)	63.5 µM (inactive)	57.8 µM (inactive)	49 µM (inactive)	46.7 µM (inactive)
COc1ccc2nc3cc(Cl)ccc3c(NCCCCCC(=O)NC(COc3ccc4ccc5cccnc5c4n3)COc3ccc4ccc5cccnc5c4n3)c2c1	27.9 µM (inactive)	45.5 µM (inactive)	27.9 µM (inactive)	5.58 µM (inactive)	12 µM (inactive)	24.2 µM (inactive)	45.9 µM (inactive)	36.9 µM (inactive)	21.4 µM (inactive)	21.7 µM (inactive)	21 µM (inactive)	30 µM (inactive)	2.79 µM (inactive)	0.527 µM (active)	25.3 µM (inactive)	24.4 µM (inactive)	29.8 µM (inactive)	2.85 µM (inactive)	17.3 µM (inactive)	16.8 µM (inactive)
O=Cc1cc(O)ccc1Br	18.2 µM (inactive)	12.5 µM (inactive)	23.5 µM (inactive)	2.81 µM (inactive)	4.78 µM (inactive)	15 µM (inactive)	18.5 µM (inactive)	34.7 µM (inactive)	5.46 µM (inactive)	6.9 µM (inactive)	14.4 µM (inactive)	15 µM (inactive)	19.5 µM (inactive)	4.15 µM (inactive)	20 µM (inactive)	32.1 µM (inactive)	7 µM (inactive)	19.7 µM (inactive)	> 100 µM (inactive)	17.3 µM (inactive)
CCCCCCCCCCC(C)CCCCCCC(=O)OCC(COP(=O)([O-])OCC[N+](C)(C)C)OC(=O)CCCCCCC(C)CCCCCCCCCC (stereo not given)	> 100 µM (inactive)	> 100 µM (inactive)	> 100 µM (inactive)	> 100 µM (inactive)	> 100 µM (inactive)	> 100 µM (inactive)	> 100 µM (inactive)	> 100 µM (inactive)	> 100 µM (inactive)	> 100 µM (inactive)	> 100 µM (inactive)	> 100 µM (inactive)	> 100 µM (inactive)	> 100 µM (inactive)	> 100 µM (inactive)	> 100 µM (inactive)	> 100 µM (inactive)	> 100 µM (inactive)	> 100 µM (inactive)	> 100 µM (inactive)
COc1ccc(Nc2nc(N)c(C(=O)c3c[nH]c4ccccc34)s2)cc1	0.583 µM (active)	2.82 µM (inactive)	0.689 µM (active)	0.998 µM (active)	1.65 µM (inactive)	14.9 µM (inactive)	3.44 µM (inactive)	4.51 µM (inactive)	2.01 µM (inactive)	5.79 µM (inactive)	1.57 µM (inactive)	5.42 µM (inactive)	3.52 µM (inactive)	0.478 µM (active)	2.18 µM (inactive)	3.13 µM (inactive)	0.5 µM (active)	0.942 µM (active)	2.05 µM (inactive)	1.3 µM (inactive)
